{
  "source": "patent US7388004B2",
  "about": "“Acid-group-substituted diphenylazetidinones, process for their preparation, medicaments comprising these compounds, and their use” (Sanofi-Aventis Deutschland GmbH, priority 2002, dated 2008)",
  "test_system": "cholesterol absorption (uptake of 14C-cholesterol by the liver)",
  "assay": "Cholesterol absorption test: uptake of 14C-cholesterol by the liver after peroral test meal",
  "assay_type": "in vivo, NMRI mice",
  "settings": "dose at which uptake of 14C-cholesterol by the liver was halved (50%) vs control group, mouse",
  "text": "Effect of the compounds of the invention on cholesterol absorption and 3H-taurocholic acid excretion using fecal excrement of mice, rats or hamsters\nNMRI mice, Wistar rats, or Golden Syrian hamsters (in groups of n=4-6) were kept in metabolic cages, where they were fed with a standard diet (Altromin, Lage (Lippe)). The afternoon prior to the administration of the radioactive tracers (14C-cholesterol), the feed was removed and the animals were adapted to grates.\nAdditionally, the animals were labeled s.c. with 3H-TCA (taurocholic acid) (for example 1 μCi/mouse up to 5 μCi/rat) 24 hours prior to the peroral administration of the test meal (14C-cholesterol in Intralipid® 20, Pharmacia-Upjohn).\nCholesterol absorption test: 0.25 ml/mouse Intralipid®D 20 (Pharmacia-Upjohn) ((spiked with 0.25 μCi of 14C-cholesterol in 0.1 mg of cholesterol) was administered perorally by gavage.\nTest substances were prepared separately in 0.5% methylcellulose (Sigma)/5% Solutol (BASF, Ludwigshafen) or a suitable vehicle.\nThe administration volume of the test substance was 0.5 ml/mouse. The test substance was administered immediately prior to the test meal (Intralipid labeled with 14C-cholesterol) (cholesterol absorption test).\nThe feces were collected over a period of 24 h. Fecal elimination of 14C-cholesterol and 3H-taurocholic acid (TCA) was determined after 24 hours.\nThe livers were removed and homogenized, and aliquots were incinerated in an oximate (Model 307, Packard) to determine the amount of 14C-cholesterol that had been taken up/absorbed.\nThe amount of-14C-cholesterol taken up by the liver was based on the administered dose. The ED50 values were interpolated from a dose-effect curve as the dose at which the uptake of 14C-cholesterol by the liver was halved (50%), based on a control group.",
  "data": [
    {"smiles": "COc1ccc(C2C(CCC(O)c3ccc(F)cc3)C(=O)N2c2ccc(CNCCCCS(=O)(=O)O)cc2)cc1", "note": "(stereo not shown) [I, 4-{4-[3-[3-(4-Fluorophenyl)-3-hydroxypropyl]-2-(4-methoxyphenyl)-4-oxoazetidin-1-yl]benzylamino}butane-1-sulfonic acid]", "values": [
      {"measurement": "ED50 (liver)", "result": 1.0, "unit": "mg/mouse"}
    ]},
    {"smiles": "COc1ccc(C2C(CCC(O)c3ccc(F)cc3)C(=O)N2c2ccc(OCCCCN(C)CCS(=O)(=O)O)cc2)cc1", "note": "(stereo not shown) [II, 2-[(4-{4-[3-[3-(4-Fluorophenyl)-3-hydroxypropyl]-2-(4-methoxyphenyl)-4-oxoazetidin-1-yl]phenoxy}butyl)methylamino]ethylsulfonic acid]", "values": [
      {"measurement": "ED50 (liver)", "result": ">0.1", "unit": "mg/mouse"}
    ]},
    {"smiles": "O=C1C(CCC(O)c2ccc(F)cc2)C(c2ccc(OCCCCNCCCCCCOP(=O)(O)O)cc2)N1c1ccc(F)cc1", "note": "(stereo not shown) [IV, Phosphoric acid mono{6-[4-(4-{1-(4-fluorophenyl)-3-[3-(4-fluorofluorophenyl)-3-hydroxypropyl]-4-oxoazetidin-2-yl}phenoxy)butylamino]hexyl}ester]", "values": [
      {"measurement": "ED50 (liver)", "result": 0.3, "unit": "mg/mouse"}
    ]},
    {"smiles": "COc1ccc(C2C(CCC(O)c3ccc(F)cc3)C(=O)N2c2ccc(CNC(=O)CS(=O)(=O)O)cc2)cc1", "note": "(stereo not shown) [IX, {4-[3-[3-(4-Fluorophenyl)-3-hydroxypropyl]-2-(4-methoxyphenyl)-4-oxoazetidin-1-yl]benzylcarbamoyl}methanesulfonic acid]", "values": [
      {"measurement": "ED50 (liver)", "result": "<1.0", "unit": "mg/mouse"}
    ]},
    {"smiles": "O=C(CS(=O)(=O)O)NCc1ccc(C2C(CCC(O)c3ccc(F)cc3)C(=O)N2c2ccc(F)cc2)cc1", "note": "(stereo not shown) [VIII, (4-{1-(4-Fluorophenyl)-3-[3-(4-fluorophenyl)-3-hydroxypropyl]-4-oxoazetidin-2-yl}benzylcarbamoyl)methanesulfonic acid]", "values": [
      {"measurement": "ED50 (liver)", "result": 0.3, "unit": "mg/mouse"}
    ]},
    {"smiles": "O=C(O)CCC(=O)NCc1ccc(C2C(CCC(O)c3ccc(F)cc3)C(=O)N2c2ccc(F)cc2)cc1", "note": "(stereo not shown) [X, N-(4-{1-(4-Fluorophenyl)-3-[3-(4-fluorophenyl)-3-hydroxypropyl]-4-oxoazetidin-2-yl}benzyl)succinaminic acid]", "values": [
      {"measurement": "ED50 (liver)", "result": "<1.0", "unit": "mg/mouse"}
    ]},
    {"smiles": "COc1ccc(C2C(CCC(O)c3ccc(F)cc3)C(=O)N2c2ccc(CNC(=O)CCCCCCCCCCC(=O)O)cc2)cc1", "note": "(stereo not shown) [XIII, 11-{4-[3-[3-(4-Fluorophenyl)-3-hydroxypropyl]-2-(4-methoxyphenyl)-4-oxoazetidin-1-yl]benzylcarbamoyl}undecanoic acid]", "values": [
      {"measurement": "ED50 (liver)", "result": "<0.1", "unit": "mg/mouse"}
    ]}
  ]
}
